Measurements published in a compilation of properties of binary mixtures (doi:10.1016/j.fluid.2015.06.043).

Assay: xn = mol fraction of the nth substance listed
Details: 101 kPa

Q: For CC[n+]1ccccc1.O=S(=O)([O-])C(F)(F)F + O, which viscosity (293.15 K, x1 = 0.183) is on record?
A: Its viscosity is 5.3 mPa·s.

Q: And the viscosity (293.15 K, x1 = 0.498)?
A: The viscosity was 17.7 mPa·s.

Q: What about the viscosity (293.15 K, x1 = 0.689) of the same compound?
A: The viscosity was 33.4 mPa·s.

Q: And the viscosity (293.15 K, x1 = 0.893)?
A: The viscosity was 65.7 mPa·s.

Q: And the viscosity (293.15 K, x1 = 1)?
A: Its viscosity is 75.2 mPa·s.

Q: And the viscosity (298.15 K, x1 = 0.183)?
A: The viscosity was 4.6 mPa·s.

Q: And the viscosity (298.15 K, x1 = 0.689)?
A: Its viscosity is 27.8 mPa·s.

Q: What about the viscosity (298.15 K, x1 = 0.893) of the same compound?
A: The viscosity was 53.2 mPa·s.

Q: And the viscosity (298.15 K, x1 = 1)?
A: Its viscosity is 60.6 mPa·s.

Q: And the viscosity (303.15 K, x1 = 0.067)?
A: Its viscosity is 1.9 mPa·s.

Q: What about the viscosity (303.15 K, x1 = 0.183) of the same compound?
A: Its viscosity is 4.03 mPa·s.

Q: And the viscosity (303.15 K, x1 = 0.498)?
A: The viscosity was 13 mPa·s.

Q: And the viscosity (303.15 K, x1 = 0.689)?
A: The viscosity was 23.5 mPa·s.

Q: What about the viscosity (303.15 K, x1 = 0.893) of the same compound?
A: The viscosity was 43.7 mPa·s.

Q: And the viscosity (303.15 K, x1 = 1)?
A: The viscosity was 48.8 mPa·s.

Q: What about the viscosity (313.15 K, x1 = 0.067) of the same compound?
A: Its viscosity is 1.5 mPa·s.

Q: And the viscosity (313.15 K, x1 = 0.183)?
A: Its viscosity is 3.16 mPa·s.

Q: And the viscosity (313.15 K, x1 = 0.498)?
A: The viscosity was 9.96 mPa·s.

Q: And the viscosity (313.15 K, x1 = 0.893)?
A: The viscosity was 30.8 mPa·s.

Q: What about the viscosity (313.15 K, x1 = 1) of the same compound?
A: The viscosity was 33.8 mPa·s.

Q: What about the viscosity (323.15 K, x1 = 0.067) of the same compound?
A: The viscosity was 1.22 mPa·s.

Q: And the viscosity (323.15 K, x1 = 0.183)?
A: The viscosity was 2.55 mPa·s.

Q: What about the viscosity (323.15 K, x1 = 0.498) of the same compound?
A: The viscosity was 7.86 mPa·s.

Q: What about the viscosity (323.15 K, x1 = 0.689) of the same compound?
A: The viscosity was 13.26 mPa·s.

Q: What about the viscosity (323.15 K, x1 = 0.893) of the same compound?
A: Its viscosity is 22.5 mPa·s.

Q: What about the viscosity (323.15 K, x1 = 1) of the same compound?
A: The viscosity was 24.5 mPa·s.

Q: What about the viscosity (333.15 K, x1 = 0.067) of the same compound?
A: Its viscosity is 1.02 mPa·s.

Q: What about the viscosity (333.15 K, x1 = 0.183) of the same compound?
A: The viscosity was 2.1 mPa·s.

Q: And the viscosity (333.15 K, x1 = 0.498)?
A: Its viscosity is 6.34 mPa·s.

Q: What about the viscosity (333.15 K, x1 = 0.689) of the same compound?
A: Its viscosity is 10.46 mPa·s.

Q: And the viscosity (333.15 K, x1 = 0.893)?
A: Its viscosity is 17.1 mPa·s.

Q: And the viscosity (333.15 K, x1 = 1)?
A: Its viscosity is 18.2 mPa·s.

Q: And the viscosity (343.15 K, x1 = 0.183)?
A: Its viscosity is 1.76 mPa·s.

Q: And the viscosity (343.15 K, x1 = 0.498)?
A: The viscosity was 5.24 mPa·s.

Q: What about the viscosity (343.15 K, x1 = 0.893) of the same compound?
A: The viscosity was 13.4 mPa·s.

Q: And the viscosity (343.15 K, x1 = 1)?
A: The viscosity was 14.05 mPa·s.

Q: And the viscosity (353.15 K, x1 = 0.498)?
A: Its viscosity is 4.41 mPa·s.

Q: What about the viscosity (353.15 K, x1 = 0.689) of the same compound?
A: The viscosity was 6.92 mPa·s.

Q: What about the viscosity (353.15 K, x1 = 1) of the same compound?
A: Its viscosity is 11.13 mPa·s.

Q: With CC[n+]1ccccc1.O=S(=O)([N-]S(=O)(=O)C(F)(F)F)C(F)(F)F + O as the compound, how does the viscosity (283.15 K, x2 = 0.0043) read?
A: The viscosity was 78.6 mPa·s.

Q: And the viscosity (283.15 K, x2 = 0.087)?
A: The viscosity was 64.3 mPa·s.

Q: What about the viscosity (293.15 K, x2 = 0.0043) of the same compound?
A: The viscosity was 49.9 mPa·s.

Q: What about the viscosity (293.15 K, x2 = 0.087) of the same compound?
A: Its viscosity is 41.7 mPa·s.

Q: What about the viscosity (298.15 K, x2 = 0.0043) of the same compound?
A: The viscosity was 40.1 mPa·s.

Q: And the viscosity (303.15 K, x2 = 0.0043)?
A: The viscosity was 33.3 mPa·s.

Q: And the viscosity (303.15 K, x2 = 0.087)?
A: Its viscosity is 28.4 mPa·s.

Q: And the viscosity (313.15 K, x2 = 0.0043)?
A: Its viscosity is 24 mPa·s.

Q: What about the viscosity (313.15 K, x2 = 0.087) of the same compound?
A: The viscosity was 20.6 mPa·s.

Q: And the viscosity (333.15 K, x2 = 0.0043)?
A: The viscosity was 13.7 mPa·s.

Q: And the viscosity (333.15 K, x2 = 0.087)?
A: The viscosity was 12.15 mPa·s.

Q: And the viscosity (343.15 K, x2 = 0.0043)?
A: Its viscosity is 10.88 mPa·s.

Q: What about the viscosity (353.15 K, x2 = 0.087) of the same compound?
A: The viscosity was 7.92 mPa·s.

Q: With O + CC[n+]1ccccc1.O=S(=O)([O-])C(F)(F)F as the compound, how does the viscosity (298.15 K, x2 = 0) read?
A: Its viscosity is 0.89 mPa·s.

Q: What about the viscosity (303.15 K, x2 = 0) of the same compound?
A: The viscosity was 0.8 mPa·s.

Q: What about the viscosity (313.15 K, x2 = 0) of the same compound?
A: Its viscosity is 0.65 mPa·s.

Q: What about the viscosity (333.15 K, x2 = 0) of the same compound?
A: Its viscosity is 0.47 mPa·s.

Q: What about the viscosity (343.15 K, x2 = 0) of the same compound?
A: The viscosity was 0.4 mPa·s.
